Here are results for six compounds from patent publication US20260347347A1, “2-AZA-AND 2-OXABICYCLO[2.1.1]HEXANE DERIVATIVES AS FACTOR XIIA ENZYME INHIBITORS” (KALVISTA PHARMACEUTICALS LIMITED, priority 2022, published 2026).

Read-outs that look alike come from different tables or passages of the source.

In one experiment the target is T1, human PKal (Homo sapiens, UniProt P03952).
T1 construct: FXIIa converts plasma prekallikrein (PK) to plasma kallikrein (PKa)
The experiment in a line: Determination of related protease inhibition: plasma kallikrein. The format is biochemical. The method, then:
(§1) In vitro inhibition of related proteases was determined using an IC50 assay based on standard literature methods (see e.g. Shori et al., Biochem. Pharmacol., 1992,43, 1209; Bouckaert et al., European Journal of Medicinal Chemistry 110 (2016) 181). Human serine protease enzyme Plasma Kallikrein, KLK1, FXa, Plasmin, Thrombin and Trypsin were assayed for enzymatic activity using an appropriate fluorogenic substrate at Km concentration, FXIa at fixed substrate concentration of 100 μM and various concentrations of the test compound. Protease activity was measured by monitoring the accumulation of liberated fluorescence from the substrate over 5 min at 25 °C. The linear rate of fluorescence increase per minute was expressed as percentage (%) activity. IC50 values were calculated as the concentration of inhibitor giving 50% inhibition of the uninhibited enzyme activity (100%).

Another experiment concerns the target human FXa (Homo sapiens, UniProt P00742). The experiment in a line: Determination of related protease inhibition: FXa. The format is biochemical. The method, then:
as §1

A further experiment addresses human plasmin (Homo sapiens, UniProt P00747). Briefly: Determination of related protease inhibition: plasmin. It is filed as biochemical. The method, then: as §1
A further experiment has as its target T2, Human Factor XIIa (Homo sapiens, UniProt P00748).
T2 construct: purchased Enzyme Research Laboratories
T2 sequence (P00748 373-615 limits assumed): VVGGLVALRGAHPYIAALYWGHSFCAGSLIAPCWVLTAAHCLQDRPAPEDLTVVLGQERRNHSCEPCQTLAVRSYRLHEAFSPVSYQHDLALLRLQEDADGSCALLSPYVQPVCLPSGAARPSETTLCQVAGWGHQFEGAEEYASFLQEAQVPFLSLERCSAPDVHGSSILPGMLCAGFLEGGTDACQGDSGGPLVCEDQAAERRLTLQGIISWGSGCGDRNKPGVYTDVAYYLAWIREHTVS
T2 sequence (P00748 20-372 partner limits assumed): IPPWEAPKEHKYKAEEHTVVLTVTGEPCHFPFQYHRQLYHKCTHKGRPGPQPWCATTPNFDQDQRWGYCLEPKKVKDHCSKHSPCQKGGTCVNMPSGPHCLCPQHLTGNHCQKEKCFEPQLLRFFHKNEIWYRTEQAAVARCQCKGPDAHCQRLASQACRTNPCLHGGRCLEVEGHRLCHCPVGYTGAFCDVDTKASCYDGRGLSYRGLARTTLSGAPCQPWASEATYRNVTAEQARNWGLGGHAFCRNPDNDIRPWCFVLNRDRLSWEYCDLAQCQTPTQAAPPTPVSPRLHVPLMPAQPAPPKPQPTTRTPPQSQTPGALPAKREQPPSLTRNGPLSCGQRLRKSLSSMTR
The experiment in a line: Determination of FXIIa inhibition (in vitro IC50 assay, fluorogenic substrate H-DPro-Phe-Arg-AFC). It is filed as biochemical. An outline of the steps:
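Human FXIIa incubated at 25 °C with compound and H-DPro-Phe-Arg-AFC at its Km concentration. Linear fluorescence increase monitored over 5 min, expressed as % of uninhibited activity; IC50 is concentration giving 50% inhibition.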

In a further experiment the target is human KLK1 (Homo sapiens, UniProt P06870). The experiment in a line: Determination of related protease inhibition: KLK1. It is filed as biochemical. The method, then: as §1
Another experiment concerns human trypsin. Briefly: Determination of related protease inhibition: trypsin. It is filed as biochemical. Conditions: fluorogenic substrate at Km concentration, 25 °C. The method, then:
as §1

For the next experiment, the target named is human thrombin (Homo sapiens, UniProt P00734). The experiment in a line: Determination of related protease inhibition: thrombin. The format is biochemical. As to the method:
as §1

The target of another experiment is human FXIa (Homo sapiens, UniProt P03951). The experiment in a line: Determination of related protease inhibition: FXIa. It is filed as biochemical. As to the method:
as §1

Experiment [1] deals with patients with type I/II hereditary angioedema (HAE). Conditions: phase 3, monthly prophylactic subcutaneous treatment; cited from earlier work.
Where [2] appears, read: fluorogenic substrate at Km concentration, 25 °C, read-out: IC50 (human PKal).
Setting [3] is: fluorogenic substrate at Km concentration, 25 °C, read-out: IC50 (human FXa).
Where [4] appears, read: fluorogenic substrate at Km concentration, 25 °C, read-out: IC50 (human plasmin).
Setting [5] is: human Factor XIIa, fluorogenic substrate H-DPro-Phe-Arg-AFC at Km concentration, 5 min, 25 °C, class symbols, read-out: Human FXIIa IC50.
[6] abbreviates: fluorogenic substrate at Km concentration, 25 °C, read-out: IC50 (human KLK1).
Where [7] appears, read: fluorogenic substrate at Km concentration, 25 °C, read-out: IC50 (human thrombin).

Chain of human FXa (P00742 235-488 limits assumed): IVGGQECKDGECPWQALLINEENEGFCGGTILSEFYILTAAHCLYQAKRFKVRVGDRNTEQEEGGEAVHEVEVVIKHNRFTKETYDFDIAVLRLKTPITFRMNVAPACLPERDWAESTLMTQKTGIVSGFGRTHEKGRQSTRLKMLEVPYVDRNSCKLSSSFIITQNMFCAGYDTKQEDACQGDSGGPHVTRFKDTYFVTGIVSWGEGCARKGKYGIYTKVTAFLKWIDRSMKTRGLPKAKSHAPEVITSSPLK
Chain of human FXa (P00742 41-179 partner limits assumed): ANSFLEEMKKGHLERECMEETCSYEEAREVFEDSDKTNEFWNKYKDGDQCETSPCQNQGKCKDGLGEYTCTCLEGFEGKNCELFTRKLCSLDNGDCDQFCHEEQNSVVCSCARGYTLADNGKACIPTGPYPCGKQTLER
Chain of human plasmin (P00747 581-810 limits assumed): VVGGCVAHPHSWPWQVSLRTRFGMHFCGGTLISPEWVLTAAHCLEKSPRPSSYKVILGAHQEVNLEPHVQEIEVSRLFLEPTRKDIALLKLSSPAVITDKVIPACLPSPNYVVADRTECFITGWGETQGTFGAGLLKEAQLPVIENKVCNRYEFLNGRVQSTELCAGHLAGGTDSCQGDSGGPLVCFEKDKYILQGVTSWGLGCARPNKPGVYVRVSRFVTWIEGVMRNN
Chain of human plasmin (P00747 97-580 partner limits assumed): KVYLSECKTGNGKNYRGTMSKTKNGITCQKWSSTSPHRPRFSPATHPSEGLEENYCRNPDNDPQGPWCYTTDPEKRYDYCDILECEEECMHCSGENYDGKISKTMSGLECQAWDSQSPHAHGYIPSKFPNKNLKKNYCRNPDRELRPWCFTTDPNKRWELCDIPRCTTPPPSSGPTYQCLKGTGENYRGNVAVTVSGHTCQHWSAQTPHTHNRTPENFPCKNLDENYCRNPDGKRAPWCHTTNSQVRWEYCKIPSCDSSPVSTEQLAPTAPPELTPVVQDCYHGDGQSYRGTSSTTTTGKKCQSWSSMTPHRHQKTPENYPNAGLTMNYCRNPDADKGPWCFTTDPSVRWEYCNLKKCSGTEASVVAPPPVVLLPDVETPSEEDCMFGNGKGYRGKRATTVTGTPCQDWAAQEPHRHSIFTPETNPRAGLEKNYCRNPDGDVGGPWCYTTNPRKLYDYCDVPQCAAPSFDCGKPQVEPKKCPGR
T1 sequence (P03952 391-638 limits assumed): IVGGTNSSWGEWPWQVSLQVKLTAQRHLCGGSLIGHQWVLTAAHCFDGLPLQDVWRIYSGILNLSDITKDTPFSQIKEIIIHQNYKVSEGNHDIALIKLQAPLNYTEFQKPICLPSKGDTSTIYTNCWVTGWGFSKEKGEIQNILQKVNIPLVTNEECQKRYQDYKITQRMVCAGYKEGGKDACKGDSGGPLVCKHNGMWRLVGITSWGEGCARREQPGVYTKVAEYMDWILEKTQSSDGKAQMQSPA
T1 sequence (P03952 20-390 partner limits assumed): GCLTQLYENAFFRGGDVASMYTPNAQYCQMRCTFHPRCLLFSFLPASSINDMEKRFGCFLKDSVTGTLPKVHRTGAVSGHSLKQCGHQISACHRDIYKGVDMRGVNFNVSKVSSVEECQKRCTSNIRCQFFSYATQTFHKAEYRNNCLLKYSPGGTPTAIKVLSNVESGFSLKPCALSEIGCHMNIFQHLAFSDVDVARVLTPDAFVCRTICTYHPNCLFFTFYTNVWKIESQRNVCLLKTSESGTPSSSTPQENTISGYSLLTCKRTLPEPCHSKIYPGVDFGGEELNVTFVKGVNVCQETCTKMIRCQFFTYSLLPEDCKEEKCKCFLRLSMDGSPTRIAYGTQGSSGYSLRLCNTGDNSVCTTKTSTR
Chain of human KLK1 (P06870 25-262): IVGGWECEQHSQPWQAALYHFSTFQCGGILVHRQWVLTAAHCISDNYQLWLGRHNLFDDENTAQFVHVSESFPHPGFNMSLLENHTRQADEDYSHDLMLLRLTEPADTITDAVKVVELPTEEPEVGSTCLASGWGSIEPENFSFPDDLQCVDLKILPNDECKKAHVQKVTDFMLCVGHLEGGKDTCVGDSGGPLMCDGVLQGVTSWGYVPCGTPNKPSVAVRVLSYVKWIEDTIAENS
Chain of human FXIa (P03951 388-625 limits assumed): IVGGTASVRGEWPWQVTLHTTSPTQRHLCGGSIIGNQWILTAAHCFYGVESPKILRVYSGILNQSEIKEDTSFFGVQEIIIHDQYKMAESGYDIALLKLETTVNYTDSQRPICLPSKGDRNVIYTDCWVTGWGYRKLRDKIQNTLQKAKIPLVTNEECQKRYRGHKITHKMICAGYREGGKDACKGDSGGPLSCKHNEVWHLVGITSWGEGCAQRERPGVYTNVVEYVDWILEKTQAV
Chain of human FXIa (P03951 19-387 partner limits assumed): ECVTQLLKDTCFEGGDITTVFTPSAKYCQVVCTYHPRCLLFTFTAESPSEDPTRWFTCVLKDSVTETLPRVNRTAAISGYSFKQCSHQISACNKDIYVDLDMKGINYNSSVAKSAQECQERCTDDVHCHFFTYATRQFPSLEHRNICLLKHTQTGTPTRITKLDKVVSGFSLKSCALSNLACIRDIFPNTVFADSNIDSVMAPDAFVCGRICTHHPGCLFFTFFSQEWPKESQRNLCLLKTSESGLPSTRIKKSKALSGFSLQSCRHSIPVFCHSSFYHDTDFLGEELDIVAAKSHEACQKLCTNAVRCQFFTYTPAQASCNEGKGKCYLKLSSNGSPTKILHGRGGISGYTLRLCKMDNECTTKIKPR

As to `Cn1ccc(OCC23CN(C(=O)CC4CCCCC4)C(CNc4cccc5c(N)nccc45)(C2)C3)cc1=O` [Example 5, 4-((1-(((1-aminoisoquinolin-5-yl)amino)methyl)-2-(2-cyclohexylacetyl)-2-azabicyclo[2.1.1]hexan-4-yl)methoxy)-1-methylpyridin-2(1H)-one], the IC50 is greater than 40 µM at human PKal (setting [2]); 10 to 40 µM at human FXa (setting [3]); 3 to 10 µM at human plasmin (setting [4]); 0.01 to 0.1 µM on Human Factor XIIa (setting [5]); 1 to 3 µM at human KLK1 (setting [6]); 10 to 40 µM with human trypsin. The half-maximal inhibitory concentration (IC50) on human thrombin (setting [7]) fell in the range of 10 to 40 µM.
Take `Cc1cc(OCC23CN(C(=O)C4CC5(CCOCC5)C4)C(CNc4cccc5c(N)nccc45)(C2)C3)cc(=O)n1C` [Example 20, 4-((1-(((1-aminoisoquinolin-5-yl)amino)methyl)-2-(7-oxaspiro[3.5]nonane-2-carbonyl)-2-azabicyclo[2.1.1]hexan-4-yl)methoxy)-1,6-dimethylpyridin-2(1H)-one]: the IC50 at human FXIa (fixed substrate concentration of 100 μM, 25 °C, read-out: IC50 (human FXla)) was 10 to 40 µM; at human PKal (setting [2]) it was greater than 40 µM; at human FXa (setting [3]) it was 10 to 40 µM; at human plasmin (setting [4]), 10 to 40 µM; at Human Factor XIIa (setting [5]), 0.01 to 0.1 µM; at human KLK1 (setting [6]) it was 10 to 40 µM. Also, the IC50 at human thrombin (setting [7]) was greater than 40 µM.
With `Cn1ccc(OCC23CN(C(=O)NC4(c5ccccc5)CC4)C(CNc4cccc5c(N)nccc45)(C2)C3)cc1=O` [Example 30, 1-(((1-Aminoisoquinolin-5-yl)amino)methyl)-4-(((1-methyl-2-oxo-1,2-dihydropyridin-4-yl)oxy)methyl)-N-(1-phenylcyclopropyl)-2-azabicyclo[2.1.1]hexane-2-carboxamide], the IC50 against human FXIa fell in the range of 3 to 10 µM; on human PKal it was 10 to 40 µM; against human FXa it was 10 to 40 µM; on human plasmin it was 10 to 40 µM; on Human Factor XIIa it was 0.001 to 0.01 µM; against human KLK1 it was 1 to 3 µM. At human thrombin, this compound yielded an IC50 greater than 40 µM.
Regarding `Cc1cc(OCC23CN(C(=O)Nc4ccc5c(c4)CCCO5)C(CN(C)c4cccc5c(N)nccc45)(C2)C3)cc(=O)n1C` [Example 104, 1-(((1-aminoisoquinolin-5-yl)(methyl)amino)methyl)-N-(chroman-6-yl)-4-(((1,6-dimethyl-2-oxo-1,2-dihydropyridin-4-yl)oxy)methyl)-2-azabicyclo[2.1.1]hexane-2-carboxamide], on Human Factor XIIa (setting [5]), the IC50 is 0.01 to 0.1 µM.
Still for that read-out and setting: under `Cc1cc(OCC23CN(c4nnc(C5CC5)o4)C(CNc4cccc5c(N)nccc45)(C2)C3)cc(=O)n1C` [Example 105, 4-((1-(((1-aminoisoquinolin-5-yl)amino)methyl)-2-(5-cyclopropyl-1,3,4-oxadiazol-2-yl)-2-azabicyclo[2.1.1]hexan-4-yl)methoxy)-1,6-dimethylpyridin-2(1H)-one] stands 0.001 to 0.01 µM.
As for “Garadacimab: Garadacimab (CSL-312), a monoclonal antibody inhibitory against FXIIa”, the “attacks in patients with type I/II hereditary angioedema” value in experiment [1] was “reduce attacks”.
